Patent publication US20240099295A1, “CELL TREATMENT AGENT” (AYA Inc., priority 2021, published 2024)

Columns and labels:
Format in all cases: cell-based
[1] = system: Rat corneal epithelial cell; experiment: Cell protective effect: cell survival during preservation (trypan blue excretion test); settings: for Average survival rate at 72 hours: refrigerator 4° C.; for Average survival rate at 24 hours: normal temperature (22° C.)
Protocol: Using a normal serum-free cell culture solution without FBS or a Ringer's solution (Otsuka Pharmaceutical Co., Ltd., Lactec Injection, Japanese Pharmacopoeia, Sodium L-lactate Ringer's solution) as a conditioning solution for use, for example, in preservation and transportation of cells, sodium alginate (Na alginate) (Fuji Chemical Industry Co., Ltd. Snow Algin SSL, viscosity of 1% aqueous solution is 30 mPa·s at 20° C.) was added to the conditioning solution in the concentrations shown in Table 1 to prepare cell preservation solutions. To each cell preservation solution, the above-described cells were added at a concentration of 10^6 cells/ml to satisfy the conditions shown in Table 1, and the resultant solution was left to stand in a room at normal temperature (22° C.) for 24 hours, and then whether cells were alive or dead was determined, and rates of viable cells (average survival rate (%)) were calculated and compared. Cell viability was determined by the trypan blue excretion test that is the ordinary method of confirming cell viability. The excretion test was performed according to the method described in “Denizot F., et al., Rapid colorimetric assay for cell growth and survival. Modifications to the tetrazolium dye procedure giving improved sensitivity and reliability. J. Immunol. Methods, 89, 271-277 (1986)”. The results are of N=4.
The average survival rate (%) was determined in the same manner as in Experimental Example (1-1-1) except that the preservation conditions were changed to leaving still for 72 hours in a refrigerator at a set temperature of 4° C. The results are of N=4.
The average survival rate (%) of cells was determined in the same manner as in Experimental Example (1-1-1) except that dextran sulfate (dextran sulfate special grade reagent available from NACALAI TESQUE, INC.) was used instead of sodium alginate and the conditions were as shown in Table 3. The results are of N=4.
The average survival rate (%) of cells was determined in the same manner as in Experimental Example (1-2-1) except that the preservation conditions were changed to leaving still for 72 hours in a refrigerator at a set temperature of 4° C. and to conditions shown in Table 4. The results are of N=3 in the case of using a serum-free cell culture solution, and are of N=4 in the case of using a Ringer's solution.
The average survival rate (%) of cells was determined in the same manner as in Experimental Example (1-1-1) except that heparin sodium (Heparin Na Mochida, unfractionated heparin, available from Mochida Pharmaceutical Co., Ltd.) was used instead of alginic acid and the conditions were as shown in Table 5. The results are of N=4.
The average survival rate (%) of cells was determined in the same manner as in Experimental Example (1-3-1) except that the preservation conditions were changed to leaving still for 72 hours in a refrigerator at a set temperature of 4° C. and to conditions shown in Table 6. The results are of N=4.
The average survival rate (%) of cells was determined in the same manner as in Experimental Example (1-3-2) except that urinastatin (Miraclid injection solution, containing 2.5 million units, available from Mochida Pharmaceutical Co., Ltd.) was used as a proteolytic enzyme inhibitor instead of heparin sodium and the conditions were as shown in Table 7. The results are of N=4. “Unit (U)” in the unit of concentration (units/mL) of inhibitor a in Table 7 can be measured, for example, by the quantitative method of urinastatin in the Japanese Pharmacopoeia 15th revision. Specifically, absorbance at 405 nm of a sample solution is measured with a UV 240 spectrophotometer, and concentration of urinastatin can be calculated from a calibration curve prepared in advance. […]

[2] = system: human amnion-derived mesenchymal stem cells; experiment: Differentiation state maintenance: marker positive rate by flow cytometry; settings: DS 0.1 mg/mL in serum-free cell culture solution, 5 days of culture
Protocol: Using dextran sulfate (DS) as an active ingredient of the cell treatment agent, the cell dormancy effect by DS was considered according to the effect of preventing differentiation by maintaining the cells in an undifferentiated state, as an index. As the cells, human amnion-derived mesenchymal stem cells in an undifferentiated state were used. Using a normal serum-free cell culture solution as a conditioning solution, a cell preservation solution a was prepared by adding DS to the conditioning solution at 0.1 mg/ml, and a cell preservation solution b was prepared by adding FBS to the conditioning solution at 10%. To each of the cell preservation solutions a and b, the aforementioned stem cells were added at 10^5 cells/ml, respectively, and then cultured for 5 days under normal cell culture conditions (37° C., CO2 concentration of 5%, humidity of 100%). The degrees of differentiation of stem cells before culture and after 5 days of culture were evaluated and compared by flow cytometry. The method followed the method described in Masoumeh Fakhr Taha, Vahideh Hedayati “Isolation, identification and multipotential differentiation of mouse adipose tissue-derived stem cells” Tissue and Cell 42 (2010) 211-216. The evaluation was made according to CD29 and CD44 as undifferentiation markers and CD11b, CD31, and CD45 as markers of differentiation into mesenchymal cells.

[3] = system: rat corneal epithelial cells; experiment: Cell detaching and suspending effect (Experimental Example 4)
Protocol: A culture solution in which FBS was added to a normal serum-free cell culture solution in a concentration of 10% (10% FBS cell culture solution) was prepared in a culture dish. To this, rat corneal epithelial cells were added at 10^6 cells/ml and cultured for 24 hours under normal cell culture conditions (37° C., CO2 concentration of 5%, humidity of 100%) to make the cultured cells fully adhere to the culture dish wall which is a scaffold.
The culture solution in the culture dish on which cultured cells obtained as described above had adhered was replaced with each of dextran sulfate aqueous solutions and a dextran aqueous solution, which are respectively obtained by dissolving dextran sulfate (Dextran sodium sulfate MW 36000-50000, available from FUJIFILM Wako Pure Chemical Corporation) and dextran (Dextran MW 35000-50000, available from FUJIFILM Wako Pure Chemical Corporation) in purified water and have concentrations shown in Table 13, and the resultant culture solutions were continuously cultured under normal cell culture conditions (37° C., CO2 concentration of 5%, humidity of 100%). For each adherent cell, detachment and suspension of adherent cells from the dish wall was observed over time. For determination of detachment and suspension, the culture dish was gently shaken manually to observe whether the cells were detached from the dish wall and suspended, and the case where 90% or more of the cells were detached and suspended was determined as detachment and suspension of adherent cells. The results are of N=4. In Table 13, “∘” means that the cells were detached and suspended, and “x” means that the cells were not detached and suspended.

With dextran sulfate [DS] the “Average survival rate at 72 hours” value ([1]; DS 0.003 mg/mL, Ringer's solution) was 67%, the “Average survival rate at 24 hours” value ([1]; DS 0.003 mg/mL, serum-free cell culture solution) was 62% and the “Average survival rate at 72 hours” value ([1]; DS 0.003 mg/mL, serum-free cell culture solution, N=3) was 76%. The “Average survival rate at 72 hours” value ([1]; DS 0.1 mg/mL, Ringer's solution) was 71%, the “Average survival rate at 24 hours” value ([1]; DS 0.1 mg/mL, serum-free cell culture solution) was 71% and the “Average survival rate at 72 hours” value ([1]; DS 0.1 mg/mL, serum-free cell culture solution, N=3) was 79%. The “Average survival rate at 72 hours” value ([1]; DS 1 mg/mL, Ringer's solution) was 60%, the “Average survival rate at 24 hours” value ([1]; DS 1 mg/mL, serum-free cell culture solution) was 73% and the “Average survival rate at 72 hours” value ([1]; DS 1 mg/mL, serum-free cell culture solution, N=3) was 73%. The “Positive rate of marker CD11b after culture” value ([2]; differentiation marker) was 19.8%, the “Positive rate of marker CD31 after culture” value ([2]; differentiation marker) was 8.3% and the “Positive rate of marker CD45 after culture” value ([2]; differentiation marker) was 7.3%. The “Positive rate of marker CD29 after culture” value ([2]; undifferentiation marker) was 98.7%, the “Positive rate of marker CD44 after culture” value ([2]; undifferentiation marker) was 62.3% and the “Detachment and suspension of adherent cells by lapse time after replacement (hour)” value (shortened to “Detachment and suspension”) ([3]; DS 0.1 mg/mL aqueous solution (MW 36000-50000), later lapse times up to 48 h, span not shown) was “∘ (“∘” means that the cells were detached and suspended)”. The “Detachment and suspension” value ([3]; DS 0.1 mg/mL aqueous solution (MW 36000-50000), starts at <12 h) was “x (“x” means that the cells were not detached and suspended)”, the “Detachment and suspension” value ([3]; DS 1 mg/mL aqueous solution (MW 36000-50000), later lapse times up to 48 h, span not shown) was “∘ (“∘” means that the cells were detached and suspended)” and the “Detachment and suspension” value ([3]; DS 1 mg/mL aqueous solution (MW 36000-50000), starts at <12 h) was “x (“x” means that the cells were not detached and suspended)”. For the same substance, the “Detachment and suspension” value ([3]; DS 10 mg/mL aqueous solution (MW 36000-50000), later lapse times up to 48 h, span not shown) was “∘ (“∘” means that the cells were detached and suspended)” and the “Detachment and suspension” value ([3]; DS 10 mg/mL aqueous solution (MW 36000-50000), starts at <12 h) was “x (“x” means that the cells were not detached and suspended)”.

For “heparin sodium [Heparin Na, reference compound]”, the “Average survival rate at 72 hours” value ([1]; Heparin Na 5 units/mL, Ringer's solution) was 70%, the “Average survival rate at 24 hours” value ([1]; Heparin Na 5 units/mL, serum-free cell culture solution) was 69% and the “Average survival rate at 72 hours” value ([1]; Heparin Na 25 units/mL, Ringer's solution) was 72%. For the same substance, the “Average survival rate at 24 hours” value ([1]; Heparin Na 25 units/mL, serum-free cell culture solution) was 75%, the “Average survival rate at 72 hours” value ([1]; Heparin Na 125 units/mL, Ringer's solution) was 74% and the “Average survival rate at 24 hours” value ([1]; Heparin Na 125 units/mL, serum-free cell culture solution) was 76%.
